From publication PMC5669199, “CM352 Reduces Brain Damage and Improves Functional Recovery in a Rat Model of Intracerebral Hemorrhage” (Journal of the American Heart Association: Cardiovascular …, 2017) come the findings set out here.

Molecules are shown by their SMILES.

In assay [1] the test system is tissue‐type plasminogen activator–induced fibrinolysis in rat whole blood. The experiment in a line: Whole blood clot formation and lysis assay (ROTEM thromboelastometry), rat blood. The class given is biochemical. The method, then: Citrated blood samples from (n=4) rats (Sprague Dawley) and (n=16) mice ([…], Harlan Iberica) were assayed with a ROTEM analyzer (Pentapharm GmbH, Munich, Germany) as previously described.20 In a prewarmed cuvette and holder we pipetted 1 μL tissue-type plasminogen activator (150 000 U/mL), 20 μL Start-tem reagent (Pentapharm GmbH), 20 μL In-tem reagent (Pentapharm GmbH), 3 μL DMSO (SIGMA) or test compounds in DMSO, and 300 μL prewarmed citrated blood. The cup holder containing the sample mixture was placed immediately on the appropriate channel. Measurements were recorded for 60 minutes to allow clot formation and lysis, and results are expressed as effective concentration to delay lysis time by 50%.

Assay [2] has as its system rat model of collagenase‐induced ICH. The experiment in a line: Hematoma and lesion volume by T2‐weighted MRI in ICH rat model. The class given is in vivo. The method, then:
Glucose levels were analyzed before surgery (mean 144.3±22.1 mg/dL). Rats were placed in a stereotaxic frame (Stoelting Co, Wood Dale, IL) under sevoflurane anesthesia. After drilling of a small burr hole, 1 μL of saline containing 0.2 U/μL bacterial collagenase type VII (Sigma‐Aldrich Corp, St. Louis, MO) was injected into the right striatum (0.6 mm anterior to bregma, −3.0 mm lateral and 5.5 mm depth) using a Hamilton syringe with a 30 G needle. Injections took place over a 10‐minute period, and the needle remained in place for additional 10 minutes before removal (1 mm/min). The burr hole was filled with bone wax (Ethicon, Somerville, NJ), and the scalp incision was closed with sutures.
. The same experimental design and setting were used to assess the effect of late (3 hours) CM352 treatment. Required sample size was calculated from previous studies using the same model21 in order to be able to detect a 25% effect size on hematoma growth versus controls (2‐tailed t test). Six animals per group are required to detect this difference with a power (1−β) of 0.8 and α=0.05. N was calculated using EPIDAT software (http://www.sergas.es/Saude-publica/EPIDAT-4-2). All treatments were given as a single bolus (jugular) 60 minutes after the collagenase injection for ICH induction. […]
Gradient‐echo pilot scans were performed at the beginning of each imaging session for accurate positioning of the animal inside the magnet bore. Multislice axial T2‐weighted imaging was performed at baseline (1 hour after IHC induction), and at 3 hours, 24 hours, and 14 days after ICH. T2‐weighted images were acquired using a RARE (factor n=4) sequence with the following acquisition parameters: field‐of‐view 19.2×19.2 mm^2, image matrix 192×192 (isotropic in‐plane resolution of 0.1×0.1 mm/pixel), 18 consecutive slices of 0.5 mm thickness.
Magnetic resonance data analysis was performed using Para Vision (Bruker Medical, Ettlingen, Germany), and images were processed with ImageJ (W. S. Rasband, National Institutes of Health, Bethesda, MD: http://rsb.info.nih.gov/ij). The analyzed region of interest was the hematoma and lesion region. Hematoma volumes (basal and 3 and 24 hours) as well as lesion volume at day 14 were manually traced from T2 maps, and the mean signal intensity was measured by 2 well‐trained imaging analysts blind to the experimental conditions.

Assay [3] has the same test system. The assay can be described thus: Bederson scale in ICH rat model. The class given is in vivo. The method, then: On the other hand, neurological deficit was evaluated with the Bederson scale,24 ranging from 0 (asymptomatic) to 8 (severe deficit), which included the following items: spontaneous movement, spontaneous rotation, spontaneous flexion of the contralateral forelimb, edge detection, turn after tail suspension, reflection of protection. Behavioral studies were performed at baseline (before surgery) and at 24 hours and 14 days after ICH during the darkness cycle. An experienced investigator, blind to treatment and neuroimaging data, analyzed the behavioral tests.

For the next assay, the system named is interleukin‐6. The experiment in a line: Plasma interleukin‐6 ELISA after ICH. The note with it: 1 mg/kg iv 1 hour after collagenase; 3 hours, P<0.05 vs control. The class given is in vivo, rat. The method, then: Blood samples (0.5 mL) were drawn from the tail vein before surgery, immediately after surgery, and at 1 hour, 3 hours, 24 hours, and 14 days. Citrate or EDTA plasma was obtained by centrifugation, and samples were stored at −80°C. Enzyme‐linked immunosorbent assay was used to measure interleukin‐6 (IL‐6, ref. KRC0061, Life Technologies, Thermo Fisher Scientific, Waltham, MA), cellular fibronectin (ref. MBS007311, MyBioSource, San Diego, CA), and thrombin‐antithrombin complex (Enzygnost TAT, ref. OWMG15, Siemens Healthcare, Erlangen, Germany) in plasma, as biomarkers of inflammation, cellular damage, and hypercoagulability, respectively. The intra‐assay and interassay coefficients of variation for all molecular markers were <10%.

Where [4] appears, read: 1 mg/kg 3 hours after collagenase, 5 hours.
[5] abbreviates: 1 mg/kg 3 hours after collagenase, 24 hours.
The mark [6] stands for this setting: 1 mg/kg iv 1 hour after collagenase, 3 hours.
The mark [7] stands for this setting: 1 mg/kg iv 1 hour after collagenase, 24 hours.

Consider `CNC(=O)c1ccc(Oc2ccc(S(=O)(=O)[C@]3(C(=O)NO)CCC4(CCNCC4)C3)cc2)cc1` [CM352, 4‐[4‐[[(3R)‐3‐(Hydroxycarbamoyl)‐8‐azaspiro[4.5]decan‐3‐yl]sulfonyl]phenoxy]‐N‐methylbenzamide], for which the EC50 in assay [1] (rat whole blood, tPA‐induced fibrinolysis, ROTEM, read-out: effective concentration to delay lysis time by 50%) came out at 3.7 µM. Besides, the “coagulation activation and clot firmness” value in assay [1] (thromboelastometry assay, whole blood) is “without changes in coagulation activation and clot firmness”. Further, the hematoma expansion is 115±17% in assay [2] (setting [4]), 114±50% in assay [2] (setting [5]), 200±86% in assay [2] (setting [6]) and 133±63% in assay [2] (setting [7]). Moreover, the “reduction of hematoma expansion versus control” value in assay [2] (setting [4]) is recorded as 62%; in assay [2] (setting [5]) it was 58%; in assay [2] (setting [6]), 35%; in assay [2] (setting [7]) it was 56%. The “lesion size versus control” value in assay [2] (1 mg/kg 3 hours after collagenase, up to day 14, P<0.05) was “differences in lesion size were patent between the groups”. In assay [2] (1 mg/kg 3 hours after collagenase, versus control P<0.01), the “hematoma volume after late administration” value was “hematoma stabilized”. Besides, the “reduction in hematoma volume compared with controls” value was found to be 29% in assay [2] (1 mg/kg iv 1 hour after collagenase, 3 hours after ICH) and 46% in assay [2] (1 mg/kg iv 1 hour after collagenase, 24 hours after ICH). In assay [2] (1 mg/kg iv 1 hour after collagenase, 14 days), the “lesion volume smaller than controls” value amounted to 48%. Moreover, in assay [2] (early‐treatment experiment, 1 hour after collagenase, before treatment, n=6), the “hematoma volume at 1 hour (basal)” value came to 23.2±3.5 mm^3. In addition, the “hematoma volume at 1 hour” value in assay [2] (late‐treatment experiment, 1 hour after collagenase, before treatment, n=6) is given as 16.0±1.9 mm^3. Further, the “hematoma volume at 3 hours” value in assay [2] (late‐treatment experiment, 3 hours after collagenase, time of treatment, n=6) worked out at 39.8±6.7 mm^3. Besides, the “neurological deficit (Bederson scale)” value is on record as “better neurological function recovery” in assay [3] (1 mg/kg 3 hours after collagenase, 24 hours (P<0.01) and day 14 (P<0.05) vs control); “better neurological functional recovery” in assay [3] (1 mg/kg iv 1 hour after collagenase, 24 hours, P<0.01 vs control); “beneficial effect of CM352 also being very noticeable” in assay [3] (1 mg/kg iv 1 hour after collagenase, day 14, P<0.01 vs control). Besides, in the assay with interleukin‐6, the “circulating IL‐6 levels” value is listed as “significant reduction”.
